According to patent US20220296627A1, “Cytidine Derivatives and Methods of Forming Cytidine Derivatives” (Aenorasis Commercial Company of Pharmaceutical and Medical …, priority 2019, published 2022):

How the values were obtained:
[1] = test system: A549/WT wild type human lung adenocarcinoma cell line; test: Cell growth assay (SRB) in A549/WT; assay type: cell-based; settings: for Ratio of IC50 in the presence of dipyridamole / IC50 in the absence of dipyridamole / Ratio of IC50 in the presence of, compared to in the absence of, dipyridamole: A549/WT; for Ratio of IC50 in the presence of dipyridamole / IC50 in the absence of dipyridamole: 4-N-acyl and 4-N-phosphoryl derivatives (Table 5); for IC50: Homo sapiens, A549, A549/WT; for Ratio of IC50 in the presence of, compared to in the absence of, dipyridamole: acetylated 4-N-acyl derivatives (Table 7)
Protocol: (§1) Biological activities of the Gemcitabine derivative (which may be referred to as analogues) described above were evaluated with two assays: • 1. Cell growth assay using the SRB assay in cell lines A549/WT, SW1573/WT, PANC-01 and BXPC-3. • 2. MTT assay in human bladder cancer cell line T-24
(§2) The following cell lines were tested: • A549/WT —wild type human lung adenocarcinoma cell line (1) • SW1573/WT —wild type non-small lung human cell line (2), • PANC-01—human pancreatic cancer cell line (3) • BXPC-3 -epithelial human pancreatic adenocarcinoma cells (4).
(§3) Dipyridamole inhibits adenosine uptake by erythrocytes platelets and endothelial cells in vitro and in vivo. Thus, the present inventors recruited dipyridamole as an inhibitor of the nucleoside transporters of the tumour cells to observe the behaviour of the presently described Gemcitabine derivatives.
(§4) From the IC50 of each compound in the presence of dipyridamole, by dividing it with the IC50 of each compound in the absence of dipyridamole, the present inventors calculated a ratio that compared the efficacy of the analogous presence of dipyridamole.
(§5) Ratio=IC50 in the presence of dipyridamole/IC50 in the absence of dipyridamole • FIG. 10. Ratio of IC50 of 4-N-acyl and 4-N-phosphoryl derivatives in the presence of, compared to in the absence of, dipyridamole, in four cell lines

[2] = test system: SW1573/WT wild type non-small lung human cell line; test: Cell growth assay (SRB) in SW1573/WT; assay type: cell-based; settings: for IC50: Homo sapiens, SW1573, SW 1573/WT; for Ratio of IC50 in the presence of dipyridamole / IC50 in the absence of dipyridamole / Ratio of IC50 in the presence of, compared to in the absence of, dipyridamole: SW 1573/WT; for Ratio of IC50 in the presence of dipyridamole / IC50 in the absence of dipyridamole: 4-N-acyl and 4-N-phosphoryl derivatives (Table 5); for Ratio of IC50 in the presence of, compared to in the absence of, dipyridamole: acetylated 4-N-acyl derivatives (Table 7)
Protocol: as §1, §2, §3, §4, §5

[3] = test system: PANC-01 human pancreatic cancer cell line; test: Cell growth assay (SRB) in PANC-01; assay type: cell-based; settings: for Ratio of IC50 in the presence of dipyridamole / IC50 in the absence of dipyridamole: 4-N-acyl and 4-N-phosphoryl derivatives (Table 5); for IC50: Homo sapiens, Pancreatic cancer cell; for Ratio of IC50 in the presence of, compared to in the absence of, dipyridamole: acetylated 4-N-acyl derivatives (Table 7)
Protocol: as §1, §2, §3, §4, §5

[4] = test system: BXPC-3 epithelial human pancreatic adenocarcinoma cells; test: Cell growth assay (SRB) in BXPC-3; assay type: cell-based; settings: for Ratio of IC50 in the presence of dipyridamole / IC50 in the absence of dipyridamole / Ratio of IC50 in the presence of, compared to in the absence of, dipyridamole: BXPC-3; for Ratio of IC50 in the presence of dipyridamole / IC50 in the absence of dipyridamole: 4-N-acyl and 4-N-phosphoryl derivatives (Table 5); for IC50: Homo sapiens, BXPC-3, BXPC-3; for Ratio of IC50 in the presence of, compared to in the absence of, dipyridamole: acetylated 4-N-acyl derivatives (Table 7)
Protocol: as §1, §2, §3, §4, §5

Human plasma stability = assay type: in vitro ADME; settings: 37° C., 24 hours incubation, 0.1 μM, triplicates
Protocol: Human plasma stability of 4-N-ethyl carbamate
1. The final concentration of 4-N-ethyl carbamate Gemcitabine in human plasma was 0.1 μM.
2. Each sample was studied in triplicates.
3. The time points during incubation in which the present inventors evaluated the concentration of derivative were: 0, 1, 2, 4, 18 and 24 hours (FIG. 16). The derivative was stable after 24 hours incubation (96% still remaining).
4. A calibration curve was designed in order to quantify the concentration of derivative in human plasma (FIG. 17). Five calibrators were used at concentrations range of 0.01, 0.05, 0.1, 0.2 and 0.4 μM. Coefficient of determination (r^2) was calculated 0.999418.
5. Accuracy in terms of trueness and precision was evaluated through the analysis of three replicates at three concentration levels (low: 0.025 μM, mid: 0.08 μM and high: 0.3 μM). The trueness was expressed as the percentage difference between the calculated concentrations and the theoretical prepared concentrations while precision was expressed as CV%.
6. LOQ was determined at 0.01 μM with trueness and precision 8.49% and 9.66% respectively and within the acceptable limits for LOQ (<20%).
FIG. 17. In vitro stability of Ethyl-(4-N-Gemcitabine) carbamate (derivative 1) after 24 h incubation in human plasma at 37° C.

[5] = Photolysis under UV irradiation (absorption spectrum); assay type: physicochemical; settings: 10 μM in MeOH, UV lamp at 366 nm for 240 minutes, room temperature
Description: After ultraviolet irradiation at a specific photo-digested group wavelength in the range from 350 to 500 nm (or greater than 700 nm when utilising two photon excitation), the active form of the encapsulated molecule is released irreversibly. Photo-inclusion has often been performed in vitro for the spatio-temporal control of biological processes and the release of light-induced payload. […] The present inventors believe that this dual strategy is of great value for therapeutic applications while it requires non-invasive and space-time drug activation. In order to show this dual drug release mechanism, the present inventors performed photolysis experiments (FIG. 2).
The spectra of derivative 7 (10 μM) and Gemcitabine (5 μM) were recorded on a Perkin Elmer Lambda 25 spectrometer at room temperature. The samples were solubilized in MeOH grade HPLC grade and irradiated with UV lamp at 366 nm for 240 minutes. The present inventors noticed that in the range of 280-290 nm and 320-330 nm there is a decrease in the absorption intensity and at the same time there is an increase in intensity to 250-270 nm. […] This theory is supported by the increase in the band corresponding to Gemcitabine.

[6] = test system: human bladder cancer cell line T-24; test: MTT assay, cell viability of T-24 cells; assay type: cell-based; settings: 100 μM; for inhibition of cell growth (cell viability, MTT), order of potency: 5000 cells/well; for cell viability (MTT), most potent derivatives: 10000 cells/well
Protocol: as §1
The cell viability of T-24 bladder cancer cells upon treatment with the Gemcitabine derivatives was evaluated using the MTT assay. T24 cancer cells were cultured in DMEM (Gibco) high glucose supplemented with 10% FBS and 1% Penicillin/Streptomycin (100 U/mL Penicillin and 100 μg/mL Streptomycin), at 37 ° C. in humidified atmosphere of 5% CO2.
For the MTT assay 5000 or 10000 cells were seeded in triplicates in 96-well plates. Stock solutions of each derivative were prepared in DMSO/EtOH (1:1 v/v). Then, the cells were treated and incubated with 100 μM of each compound for 24 or 48 hours. After the completion of the incubation time, 10 μL of MTT solution (5 mg/ml in PBS buffer) were added in each well and incubated for 4 hrs. Finally, to stop the reaction, the supernatant from each well was removed and 100 μL of stop mix solution (20% SDS in 50% dimethyl formamide in water) were added. The plate remained in darkness for 2 h and the absorbance was measured at 540 nm via a microplate ELISA reader (Awareness Technology Inc.) with a reference at 630 nm. The % cell viability for each compound was calculated relatively to the absorbance of the untreated cells (control).
Two sets of experiments were performed at concentrations of 100 μM, and the absorption of formazan was measured after 24 and 48 hours.
Another experiment was conducted with the MTT assay where the compounds were incubated for 48 hours at […] derivative concentration where the number of cells seeded per well was 10000.

[7] = 4-N-acyl and 4-N-phosphoryl derivatives (Table 4)
[8] = acetylated 4-N-acyl derivatives (Table 6)

| Compound | Ratio of IC50 in the presence of dipyridamole / IC50 in the absence of dipyridamole [1] | IC50 [1, 7] | IC50 [2, 7] | Ratio of IC50 in the presence of dipyridamole / IC50 in the absence of dipyridamole [2] | Ratio of IC50 in the presence of dipyridamole / IC50 in the absence of dipyridamole [3] | IC50 [3, 7] | Ratio of IC50 in the presence of dipyridamole / IC50 in the absence of dipyridamole [4] | IC50 [4, 7] | inhibition of cell growth (cell viability, MTT), order of potency ([6]; 24 hours) | inhibition of cell growth (cell viability, MTT), order of potency ([6]; 48 hours) | cell viability (MTT), most potent derivatives ([6]; 48 hours) | Ratio of IC50 in the presence of, compared to in the absence of, dipyridamole [1] | IC50 [1, 8] | IC50 [2, 8] | Ratio of IC50 in the presence of, compared to in the absence of, dipyridamole [2] | IC50 [3, 8] | Ratio of IC50 in the presence of, compared to in the absence of, dipyridamole [3] | Ratio of IC50 in the presence of, compared to in the absence of, dipyridamole [4] | IC50 [4, 8] | further results |
| --- | --- | --- | --- | --- | --- | --- | --- | --- | --- | --- | --- | --- | --- | --- | --- | --- | --- | --- | --- | --- |
| CCOC(=O)Nc1ccn(C2OC(CO)C(O)C2(F)F)c(=O)n1 (stereo not shown) [Derivative 1, Ethyl-(4-N-Gemcitabine) carbamate] | 16.2 | 1600 nM | 1150 nM | 21 | 4.1 | 3900 nM | 23.2 | 860 nM | – | – | – | – | – | – | – | – | – | – | – | still remaining after incubation in human plasma (Human plasma stability): 96% |
| COc1cc(COC(=O)Nc2ccn(C3OC(CO)C(O)C3(F)F)c(=O)n2)c([N+](=O)[O-])cc1OC (stereo not shown) [Derivative 7, (4,5-dimethoxy)-2-nitrobenzyl-(4-N-Gemcitabine) carbamate] | 14.2 | 460 nM | 440 nM | 11 | 3.3 | 1500 nM | 13.9 | 230 nM | – | – | – | – | – | – | – | – | – | – | – | photolysis on irradiation (absorption spectrum over time) [5]: release of Gemcitabine |
| O=C(Nc1ccn(C2OC(CO)C(O)C2(F)F)c(=O)n1)OCc1cn(C2=CC3C=CC(O)=CC3OC2=O)nn1 (stereo not shown) [Derivative 11, (1-(7-hydroxy-2-oxo-4a,8a-dihydro-2H-chromen-3-yl)-1H-1,2,3-triazol-4-yl) methyl-4-N-Gemcitabine carbamate] | 11 | 430 nM | 420 nM | 11.9 | 4.6 | 1600 nM | 25 | 200 nM | greater potency than the parent drug Gemcitabine | 17>4>11 and then Gemcitabine | most potent | – | – | – | – | – | – | – | – | – |
| CCCCOC(=O)Nc1ccn(C2OC(COC(C)=O)C(OC(C)=O)C2(F)F)c(=O)n1 (stereo not shown) [Derivative 14] | – | – | – | – | – | – | – | – | – | – | most potent | 0.83 | 3100 nM | 2800 nM | 1.4 | 6500 nM | 0.9 | 1.77 | 1350 nM | – |
| CC(=O)OCC1OC(n2ccc(NC(=O)OCCl)nc2=O)C(F)(F)C1OC(C)=O (stereo not shown) [Derivative 17] | – | – | – | – | – | – | – | – | greater potency than the parent drug Gemcitabine | 17>4>11 and then Gemcitabine | – | 2.4 | 2000 nM | 140 nM | – | 700 nM | 1.8 | 3.5 | 95 nM | – |
| Nc1ccn([C@@H]2O[C@H](CO)[C@@H](O)C2(F)F)c(=O)n1 [Gemcitabine, 2′,2′-difluoro-2′-deoxycytidine, reference compound] | 15 | 18 nM | 11 nM | 22.7 | 3.4 | 52 nM | 26.6 | 9 nM | – | 17>4>11 and then Gemcitabine | – | 18 | 15 nM | 9.6 nM | 1 | 31 nM | 7.4 | 24.3 | 13 nM | – |
